From PMC11763059, “GENI as an AMPK Activator Binds α and γ Subunits and Improves the Memory Dysfunction of Alzheimer’s Disease Mouse Models via Autophagy and Neuroprotection” (Antioxidants, 2025)

How the values were obtained:
[1] = test system: T1, AMPK α subunit ASP166 mutated into ALA166; experiment: SPR analysis, AMPK α subunit D166 replaced with A166; format: binding
T1 construct: His (N); made in house
Method: Mammalian AMPK subunits (His-α1, β1, and γ1) were cloned into a pET-3d vector, and protein expression and purification were similar to the literature.
SPR analysis was performed with a Biacore T200 instrument (GE Healthcare). Firstly, the purred His-tagged AMPK containing α1β1γ1 protein was captured onto an activated carboxymethylated 5 (CM5) chip using amine coupling to levels ranging from 4000 RU to 6000 RU. Secondly, GENI was dissolved in PBS-P buffer solution (0.05% (v/v) Tween 20 and PBS), and the concentration of GENI was 64 μM. Thirdly, the solution of GENI was diluted to 32 μM, 16 μM, 8 μM, 4 μM, 2 μM, 1 μM and 0.5 μM with PBS-P buffer solution. The sample was filtered by pumping through a […] membrane. A gradient concentration of GENI was injected at a flow rate of 30 μL/min in a running buffer (0.05% (v/v) Tween 20 and PBS). The data were analyzed with Biacore evaluation software (T200 version 2.0) and fitted to the 1:1 Langmuir binding model, and the kinetic parameters were derived.
The non-covalent interaction between drugs and proteins is an important way to exert drug efficacy, and its mode of action and binding affinity usually determine the utilization and biological activity of drugs. AMPK is a heterotrimer complex consisting of an α subunit containing the kinase domain and two regulatory subunits (β- and γ-). […]

BV-2 microglia = experiment: BV-2 microglial activity assay (Iba1 staining); format: cell-based, murine; conditions: GENI 1, 3, and 10 μM, LPS 1 μg/mL
Method: BV-2 cells (2.5 × 10^4) were seeded in 24-well plates. […] We then removed the medium, washed the cells three times with PBS, and fixed the cells with 4% paraformaldehyde (500 μL/well) for 20 min at room temperature. We washed the cells three times with PBS and added Quick Block^TM immunostaining blocking solution (500 μL/well) to block for 60 min. After removing the blocking solution, we added 200 μL of the primary antibody (Anti-Iba1 rabbit monoclonal antibody, 1:1000, abcam178847) to each well and incubated the samples overnight at 4 °C. The next day, the supernatant was discarded, washed three times with PBS, and incubated with the secondary antibody Cart anti-rabbit IgG (1:1000) at room temperature for 1 h. Nuclei were stained with DAPI (250 μL/well) for 5 min, and the fluorescence was observed under a fluorescent inverted microscope (Olympus IX53, Tokyo, Japan).

D-gal-induced AD mice = experiment: Behaviour tests in D-gal-induced AD mice; format: in vivo
Method: Each group comprised 10 mice. […] Dosing lasted for 10 weeks. […] The mice were sacrificed after 10 weeks of administration.
The Y-maze is mainly used to study the spatial working memory ability of rodents. The Y-maze consisted of three equal-length arms (50 cm × 18 cm × 35 cm), and the angle between each two arms was 120 degrees. The mice were placed at the end of any arm of the Y-maze and allowed to explore freely for 8 min. The behavioral changes including the total number of entries and alternation (successively entering all three arms of the Y-maze once in turn) were recorded. Percentage altercation = alternation/(entries-2) × 100%. The Y-maze could effectively reflect the ability of animals to recognize and remember novel environments.
NOR was used to detect memory in rodents. We prepared a 40 × 40 × 40 cm square box, camera equipment, and behavioral analysis software. We chose three objects A, B, and C, where objects A and B were exactly the same, and object C was very different from objects A and B. After the start of the experiment, the mice were allowed to acclimate freely in the experimental apparatus for 10 min. Objects A and B were placed into the box, and the mice were allowed to explore for 5 min. We then recorded the exploration time and times. After 1 h, A and C or B and C were placed into the box. After letting the mice explore for 5 min, we recorded the exploration time of the original object and the new object. Discrimination index = exploration time of new objects/total exploration time × 100%.
The MWM installation consisted of a circular pool (120 cm in diameter and 50 cm in height), camera equipment, and a computer analysis system. In the first stage, the platform position was fixed, and mice were placed into the pool from any three of the four origins on the pool facing away from the pool wall. The time when it took for the mouse to find the platform within 120 s, called escape latency, was recorded. The training period lasted 4 days. The escape latency of the mice was recorded daily, and the average value was used as an index to evaluate the ability of learning and memory. On the 5th day, the platform was evacuated by the experimenter. The mice were placed against the platform into the water from any water entry point, and they were allowed to swim freely for 60 s. We then recorded the number of times that they crossed the platform.
The rationale for the three-box social test is based on the fact that mice are naturally gregarious and tend to explore new objects. The experimental device consisted of three rectangular boxes, each with a size of 19×45 cm, with a channel in the middle to allow the three boxes to connect with one another. Two metal cages of the same size were placed in the centre of the left and right boxes. Firstly, the mice were placed in the box for 10 min. Secondly, stranger 1 mouse was randomly placed in the metal cage in the left or right box, and the metal cage in the other box was empty. The experimental mice were placed in the box for 10 min. The number and duration of direct contact between the experimental mice and stranger 1 were recorded. Thirdly, strange 2 mice were placed in the empty metal cage of the second stage experiment and then recorded for 10 min. We observed the time and number of contacts between stranger 1 and stranger 2 and calculated the social preference and sociability index.

[2] = GENI administration group compared with the D-gal model group

CC(C)CCOC(=O)C1=CO[C@@H](O[C@@H]2O[C@H](CO)[C@@H](O)[C@H](O)[C@H]2O)C2C(CO)=CCC12 (some centres unmarked) [GENI, Geniposidic 4-isoamyl ester]
dose-dependent response in SPR [1]: No significant dose-dependent response
LPS-induced activation in BV-2 microglia (BV-2 microglia): inhibiting
rate of alternating arms in the Y maze test (D-gal-induced AD mice; GENI 25 and 50 mg/kg i.g., versus D-gal group): significantly increase
escape latency in the Morris water maze test (D-gal-induced AD mice; [2]): significantly reduced
number of crossing platforms in the Morris water maze test (D-gal-induced AD mice; [2]): significantly increased
cognitive index and object recognition index in the NOR experiment (D-gal-induced AD mice; GENI i.g., versus D-gal group): significantly increased
sociability and social preferences (three-box social experiment) (D-gal-induced AD mice; GENI-administered groups): significant social skills and social preferences
optimal dose for anti-AD effect (D-gal-induced AD mice; comparable to the effect of DON at a dose of 3 mg/kg): 25 mg/kg
